From patent US6573246B1, “Modified ether glyceroglycolipids” (The Liposome Company, Inc., priority 1995, dated 2003)
Like-named read-outs stand apart in the source and are kept apart here.

How the values were obtained:
[1] = test system: L1210/vmdr cells; assay: growth inhibition of L1210/vmdr cells in culture; format: cell-based; conditions: mean ± standard deviation, read-out: Gl50 (concentration of lipid required to inhibit the growth of fifty percent of the cells in culture)
Procedure: (§1) The Gl50 values for edelfosine (1), 2′-deoxy-β-D-arabinopyranosyl (2), 2′-deoxy-α-D-arabinopyranosyl (3), 2-O-methyl-β-D-glucopyranosyl (4), 2′-O-methyl-β-D-mannopyranosyl (5) and α-D-mannopyransoyl (6) on A-549, MCF-7, Lewis Lung, MCF-7/Adr (adriamycin-resistant), P388, P-388/Adr, L1210 and L1210/vmdr cells were determined and are set forth below (see Table 4) as the concentration (micromolar) of lipid required to inhibit the growth of fifty percent of the cells in culture.
(§2) Gl50 values are given as the mean ± standard deviation; the Gl50 value from each experiment “n” was generated from three individual wells on two separate plates (six total wells); n=1 for compounds 3-6; n=2 for most cell lines treated with compound 2 ^an=3; ^bn=2; ^cn=6; ^dn=8.

[2] = test system: A549 cells (non-small cell lung adenocarcinoma); assay: growth inhibition of A549 cells in culture; format: cell-based, human
Procedure: (§3) Human epithelial cancer cell lines were grown from frozen stocks originally obtained from the ATCC, in media commonly used for growing these cells in culture. For example, A549 cells (non-small cell lung adenocarcinoma) were cultured in Ham's F-12 medium, T84 cells (colon carcinoma) were cultured in a 1:1 mixture of F-12 and DMEM while MCF-7 (breast adenocarcinoma) and A427 (large cell lung carcinoma) cells were cultured in DMEM. The media were supplemented with 10% fetal bovine serum, penicillin (50 U/ml), streptomycin (50 micogram/ml) and fungizone (0.5 microgram/ml). OVCAR-3 cells (ovarian adenocarcinoma) were cultured in RPMI 1640 medium supplemented with 20% FBS and 10 microgram/ml insulin.
(§4) Cells were subcultured into 24-well plates and the cell number was monitored daily. When the cells were in log phase, the media was replaced with one containing the required drug concentration, and the cells were incubated for 72 h. The increase in cell numbers relative to control wells (without any drug) was determined after the incubation. Stock solutions of the drugs ([…]) were prepared in ethanol and stored at −20 deg. C. Etherlipid solutions (30 micromolar) in the appropriate media were prepared fresh on the day of the experiment and serially diluted to give the required concentrations. The final concentration of ethanol in all wells was 0.1% (v/v).
as §2

[3] = test system: MCF-7 (breast adenocarcinoma) cells; assay: growth inhibition of MCF-7 cells in culture; format: cell-based, human
Procedure: as §3, §4, §2

[4] = test system: MCF-7/Adr (adriamycin-resistant) cells; assay: growth inhibition of MCF7/adr cells in culture; format: cell-based, human; conditions: mean ± standard deviation, read-out: Gl50 (concentration of lipid required to inhibit the growth of fifty percent of the cells in culture)
Procedure: as §1, §2

[5] = test system: L1210 cells; assay: growth inhibition of L1210 cells in culture; format: cell-based; conditions: mean ± standard deviation, read-out: Gl50 (concentration of lipid required to inhibit the growth of fifty percent of the cells in culture)
Procedure: as §1, §2

[6] = test system: HT29 cells; assay: growth inhibition of HT29 cells in culture; format: cell-based; conditions: mean ± standard deviation, read-out: Gl50 (concentration of lipid required to inhibit the growth of fifty percent of the cells in culture)
[7] = test system: A427 (large cell lung carcinoma) cells; assay: growth inhibition of A427 cells in culture; format: cell-based, human
Procedure: as §3, §4

[8] = test system: OVCAR-3 cells (ovarian adenocarcinoma); assay: growth inhibition of OVCAR-3 cells in culture; format: cell-based, human; conditions: for growth: increase in cell numbers relative to control wells (control = 100): OVCAR-3, 72 h
Procedure: as §3, §4

[9] = test system: T84 cells (colon carcinoma); assay: growth inhibition of T84 cells in culture; format: cell-based, human
Procedure: as §3, §4

[10] = 72 h, 10% FBS-supplemented medium, read-out: Gl50 (concentration that inhibited cell growth by 50% in comparison to control cultures)
[11] = lipid concentration 6.5 μM, 72 h
[12] = lipid concentration 8.0 μM, 72 h
[13] = lipid concentration 10 μM, 72 h
[14] = lipid concentration 12.5 μM, 72 h
[15] = lipid concentration 15 μM, 72 h
[16] = lipid concentration 20 μM, 72 h

CCCCCCCCCCCCCCCCOC[C@H](CO[C@H]1O[C@H](CO)[C@@H](O)[C@H](O)[C@@H]1OC)OC [compound 5, 1-O-Hexadecyl-2-O-methyl-3-O-(2′-O-methyl-α-D-mannopyransoyl)-sn-glycerol]
IC50 [1]: 16.5 ± 1.13 µM | IC50 ([2]; mean ± standard deviation, read-out: Gl50 (concentration of lipid required to inhibit the growth of fifty percent of the cells in culture)): 15.55 ± 0.07 µM | IC50 ([3]; MCF7, mean ± standard deviation, read-out: Gl50 (concentration of lipid required to inhibit the growth of fifty percent of the cells in culture)): 18.2 µM | IC50 [4]: 18.55 ± 0.07 µM | IC50 [5]: 15.5 ± 0.35 µM | IC50 [6]: 20 ± 0.28 µM

CCCCCCCCCCCCCCCCOC[C@H](CO[C@@H]1O[C@H](CO)[C@@H](O)[C@H](O)[C@H]1N)OC [A, 1-O-hexadecyl-2-O-methyl-3-O-(2′-amino-2′-deoxy-β-D-glucopyranosyl)-sn-glycerol]
concentration cytotoxic to the cells ([7]; 10% FBS-supplemented medium): 10.5 µM | IC50 [7, 10]: 7 µM | proliferation: increase in cell numbers relative to control wells (control = 100) ([7]; lipid concentration 5 μM, 72 h): 68.98 ± 9.25 | proliferation: increase in cell numbers relative to control wells (control = 100) [7, 11]: 49.74 ± 5.16 | proliferation: increase in cell numbers relative to control wells (control = 100) [7, 12]: 4.29 ± 5.16 | proliferation: increase in cell numbers relative to control wells (control = 100) [7, 13]: 0 | proliferation: increase in cell numbers relative to control wells (control = 100) [7, 14]: 0 | proliferation: increase in cell numbers relative to control wells (control = 100) [7, 15]: 0 | proliferation: increase in cell numbers relative to control wells (control = 100) [7, 16]: 0 | concentration cytotoxic to the cells ([2]; 10% FBS-supplemented medium): 10.5 µM | IC50 [2, 10]: 8.3 µM | proliferation: increase in cell numbers relative to control wells (control = 100) ([2]; lipid concentration 5 μM, 72 h): 82.28 ± 4.66 | proliferation: increase in cell numbers relative to control wells (control = 100) [2, 11]: 67.39 ± 6.18 | proliferation: increase in cell numbers relative to control wells (control = 100) [2, 12]: 45.17 ± 12.06 | proliferation: increase in cell numbers relative to control wells (control = 100) [2, 13]: 0 | proliferation: increase in cell numbers relative to control wells (control = 100) [2, 14]: 0 | proliferation: increase in cell numbers relative to control wells (control = 100) [2, 15]: 0 | proliferation: increase in cell numbers relative to control wells (control = 100) [2, 16]: 0 | concentration cytotoxic to the cells ([3]; MCF-7, 10% FBS-supplemented medium): 16 µM | IC50 ([3]; MCF-7, 72 h, 10% FBS-supplemented medium, read-out: Gl50 (concentration that inhibited cell growth by 50% in comparison to control cultures)): 6.5 µM | proliferation: increase in cell numbers relative to control wells (control = 100) ([3]; MCF-7, lipid concentration 5 μM, 72 h): 60.60 ± 7.14 | proliferation: increase in cell numbers relative to control wells (control = 100) ([3]; MCF-7, lipid concentration 6.5 μM, 72 h): 44.05 ± 11.70 | proliferation: increase in cell numbers relative to control wells (control = 100) ([3]; MCF-7, lipid concentration 8.0 μM, 72 h): 31.46 ± 5.56 | proliferation: increase in cell numbers relative to control wells (control = 100) ([3]; MCF-7, lipid concentration 10 μM, 72 h): 14.42 ± 8.39 | proliferation: increase in cell numbers relative to control wells (control = 100) ([3]; MCF-7, lipid concentration 12.5 μM, 72 h): 3.90 ± 5.75 | proliferation: increase in cell numbers relative to control wells (control = 100) ([3]; MCF-7, lipid concentration 15 μM, 72 h): 0 | proliferation: increase in cell numbers relative to control wells (control = 100) ([3]; MCF-7, lipid concentration 20 μM, 72 h): 0 | growth: increase in cell numbers relative to control wells (control = 100) ([8]; lipid concentration 5 μM): 42.9 ± 13.4 | growth: increase in cell numbers relative to control wells (control = 100) ([8]; lipid concentration 10 μM): 7.7 ± 2.3 | growth: increase in cell numbers relative to control wells (control = 100) ([8]; lipid concentration 15 μM): 0 | IC50 ([8]; OVCAR-3 ovarian cancer cell line, read-out: Gl50 (the source's name)): 12 µM | concentration cytotoxic to the cells ([9]; 10% FBS-supplemented medium): 20 µM | IC50 [9, 10]: 12.2 µM | proliferation: increase in cell numbers relative to control wells (control = 100) ([9]; lipid concentration 5 μM, 72 h): 89.71 ± 12.72 | proliferation: increase in cell numbers relative to control wells (control = 100) ([9]; lipid concentration 7.5 μM, 72 h): 75.16 ± 10.79 | proliferation: increase in cell numbers relative to control wells (control = 100) [9, 13]: 64.89 ± 11.56 | proliferation: increase in cell numbers relative to control wells (control = 100) [9, 14]: 39.59 ± 9.50 | proliferation: increase in cell numbers relative to control wells (control = 100) [9, 15]: 15.06 ± 7.23 | proliferation: increase in cell numbers relative to control wells (control = 100) [9, 16]: 0
